Source: patent publication US9371265B2, “Compositions and methods related to inhibitors of JAK kinase” (EP PHARMA, INC., priority 2012, dated 2016)

How the values were obtained:
p38-alpha = p38-alpha (Homo sapiens, UniProt Q16539); test: Kinase panel: p38-alpha; assay type: biochemical; settings: 10 μM EP009
Protocol: (§1) Achieving JAK3 selectivity remains a significant challenge in the development of new small molecules for the treatment of cancer and immune-derived diseases. As such, the inventors employed cell-based screening assays of small-molecule libraries based upon the chemical scaffold of the established JAK3 inhibitor NC1153 (Stepkowski et al., J Immunol. (2005), 175(7):4236-4246) EP009 (FIG. 2A) was selected as a lead compound due to improved intrinsic stability (>95% purity in various solvents at 37° C. for 24 hours; FIG. 3) and high-degree of JAK3 selectivity. To test JAK3 versus JAK2 specificity of EP009, the IL-2/JAK3-dependent Kit225, and IL-3/JAK2-dependent BaF/3 cell lines were used. Kit225 and BaF/3 cells growing in the presence of IL-2 or IL-3, respectively, were treated with ascending concentrations of EP009 for 12 hours and cellular JAK3 and JAK2 tyrosine phosphorylation levels detected by Western blot analysis (FIGS. 2B and 2C). Following densitometric analysis, EP009 was determined to dose-dependently reduce IL-2-mediated JAK3 tyrosine phosphorylation with a cellular 50% inhibitory concentration (IC50) between 10 and 20 μM (FIG. 2B). […] To globally evaluate specificity, the inhibitory activity of EP009 was measured against a panel of protein kinases distributed throughout the kinome using the scanEDGE profiling service (KINOMEscan). […]

JAK3 = JAK3 (Homo sapiens, UniProt P52333); test: Constitutive JAK3 tyrosine phosphorylation in SU-DHL-1 cells (IP/Western blot); assay type: cell-based; set-up: cellular JAK3 and JAK2 tyrosine phosphorylation levels detected by Western blot analysis; endogenous in cells; settings: 20 μM EP009, 12 hours, vs vehicle
JAK3, sequence (P52333 whole entry): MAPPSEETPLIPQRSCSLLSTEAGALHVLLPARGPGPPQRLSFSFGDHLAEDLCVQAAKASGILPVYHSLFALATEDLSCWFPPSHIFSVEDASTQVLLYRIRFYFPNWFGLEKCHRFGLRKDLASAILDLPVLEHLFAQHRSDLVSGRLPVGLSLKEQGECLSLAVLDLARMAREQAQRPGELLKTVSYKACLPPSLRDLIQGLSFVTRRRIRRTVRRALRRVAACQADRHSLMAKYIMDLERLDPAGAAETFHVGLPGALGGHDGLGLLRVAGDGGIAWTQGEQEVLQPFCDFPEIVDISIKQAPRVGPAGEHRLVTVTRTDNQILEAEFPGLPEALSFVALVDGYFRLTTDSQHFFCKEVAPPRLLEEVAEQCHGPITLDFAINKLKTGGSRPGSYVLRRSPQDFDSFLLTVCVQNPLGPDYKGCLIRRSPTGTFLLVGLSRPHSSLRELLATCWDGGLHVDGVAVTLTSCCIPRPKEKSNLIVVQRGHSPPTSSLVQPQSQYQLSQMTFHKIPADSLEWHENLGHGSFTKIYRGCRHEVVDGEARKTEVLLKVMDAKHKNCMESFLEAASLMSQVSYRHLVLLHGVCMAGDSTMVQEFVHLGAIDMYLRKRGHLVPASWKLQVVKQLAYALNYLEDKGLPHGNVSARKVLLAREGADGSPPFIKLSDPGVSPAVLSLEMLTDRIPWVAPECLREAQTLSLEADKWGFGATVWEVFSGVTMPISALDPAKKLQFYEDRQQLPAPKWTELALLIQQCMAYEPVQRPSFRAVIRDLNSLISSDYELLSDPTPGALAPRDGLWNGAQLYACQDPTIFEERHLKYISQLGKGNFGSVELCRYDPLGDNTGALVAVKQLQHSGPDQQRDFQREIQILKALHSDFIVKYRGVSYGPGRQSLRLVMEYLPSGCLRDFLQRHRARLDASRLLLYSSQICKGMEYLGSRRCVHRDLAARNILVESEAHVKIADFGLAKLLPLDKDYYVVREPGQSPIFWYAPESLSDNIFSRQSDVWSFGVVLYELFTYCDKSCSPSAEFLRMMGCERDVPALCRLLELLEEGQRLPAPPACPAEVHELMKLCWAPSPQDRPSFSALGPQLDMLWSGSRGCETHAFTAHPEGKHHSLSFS
Excerpt: (§2) FIGS. 6A-6B. EP009 treatment disrupts constitutive JAK3/STAT3 pathway activation and down-regulates CD30 cell surface expression in human ALCL cells. (A) Kit225 (lane a), SUP-M2 (lane b), Karpas299 (lane c), DEL (lane d) and SU-DHL-1 (lane e) total cell lysates were separated by 7.5% SDS-PAGE (upper panel) or were immunoprecipitated (IP) with JAK3 antibodies (lower panel) and separated on 7.5% SDS-PAGE, and then subjected to Western blot (WB) analysis with the indicated antibodies. (B) SU-DHL-1 cells were treated with vehicle (PBS; lane a) or increasing amounts of EP009 (0-40 μM; lanes b-e) for 12 hours. Cells were then lysed, clarified, and immunoprecipitated (IP) with anti-JAK3 (α-JAK3), and subjected to Western blot (WB) analysis with anti-phosphotyrosine (α-pY). Blots were stripped and reprobed with α-JAK3 to verify equivalent protein loading. (C) SU-DHL-1 cells were treated with vehicle (PBS) or increasing amounts of EP009 (0-40 μM) for 12 hours. […] Values represent pSTAT mean fluorescence intensity (MFI) normalized to corresponding GAPDH MFI, while error bars represent the standard deviation (n=2). Statistical significance was determined using Student's t-test. […] Cells were then analyzed by flow cytometry for CD30 expression. […]

CD30 = CD30 cell surface expression in SU-DHL-1 cells (flow cytometry); assay type: cell-based, human; settings: 24 hours
Excerpt: as §2, with “(α-pY).” for “(α-pY). Blots were stripped and reprobed with α-JAK3 to verify equivalent protein loading. (C) SU-DHL-1 cells were treated with vehicle (PBS) or increasing amounts of EP009 (0-40 μM) for 12 hours.”
Cells were treated in the absence or presence of the indicated concentrations of EP009 for 24 hours, and stained with FITC-labeled mouse anti-human CD30 (Millipore). Stained cells were analyzed by flow cytometry (Cytomics FC500, Beckman Coulter) and quantitated with CXP analysis software version 2.2 (Beckman Coulter) as previously described.24

FLT3 = FLT3 (Homo sapiens, UniProt P36888); test: Kinase panel: FLT3; assay type: biochemical; settings: 10 μM EP009
FLT3, sequence (P36888 27-993): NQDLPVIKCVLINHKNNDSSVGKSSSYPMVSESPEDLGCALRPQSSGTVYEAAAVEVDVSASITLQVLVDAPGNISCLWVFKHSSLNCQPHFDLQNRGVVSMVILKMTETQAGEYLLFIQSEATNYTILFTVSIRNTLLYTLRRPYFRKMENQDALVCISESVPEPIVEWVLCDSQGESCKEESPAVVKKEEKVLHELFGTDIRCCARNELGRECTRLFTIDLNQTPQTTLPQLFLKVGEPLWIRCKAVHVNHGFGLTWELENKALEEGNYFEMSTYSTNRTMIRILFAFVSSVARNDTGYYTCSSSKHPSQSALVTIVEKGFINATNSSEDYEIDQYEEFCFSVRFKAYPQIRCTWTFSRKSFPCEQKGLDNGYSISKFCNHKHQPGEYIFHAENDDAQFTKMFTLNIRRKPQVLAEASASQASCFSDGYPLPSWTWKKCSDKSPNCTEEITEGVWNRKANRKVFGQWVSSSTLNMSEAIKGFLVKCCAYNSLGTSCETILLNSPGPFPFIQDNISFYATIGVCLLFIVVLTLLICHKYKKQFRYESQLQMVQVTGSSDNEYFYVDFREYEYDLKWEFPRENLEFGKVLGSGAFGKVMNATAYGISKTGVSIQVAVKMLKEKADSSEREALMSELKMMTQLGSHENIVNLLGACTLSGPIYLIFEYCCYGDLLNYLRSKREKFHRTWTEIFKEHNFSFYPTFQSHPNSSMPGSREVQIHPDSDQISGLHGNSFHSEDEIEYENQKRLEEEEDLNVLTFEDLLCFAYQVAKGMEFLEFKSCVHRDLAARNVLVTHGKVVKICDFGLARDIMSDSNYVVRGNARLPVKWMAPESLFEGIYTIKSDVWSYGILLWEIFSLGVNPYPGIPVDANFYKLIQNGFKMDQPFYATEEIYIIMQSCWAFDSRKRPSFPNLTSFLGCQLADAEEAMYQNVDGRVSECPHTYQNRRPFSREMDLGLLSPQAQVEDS
Protocol: as §1

MARK3 = MARK3 (Homo sapiens, UniProt P27448); test: Kinase panel: MARK3; assay type: biochemical; settings: 10 μM EP009
MARK3, sequence (P27448 whole entry): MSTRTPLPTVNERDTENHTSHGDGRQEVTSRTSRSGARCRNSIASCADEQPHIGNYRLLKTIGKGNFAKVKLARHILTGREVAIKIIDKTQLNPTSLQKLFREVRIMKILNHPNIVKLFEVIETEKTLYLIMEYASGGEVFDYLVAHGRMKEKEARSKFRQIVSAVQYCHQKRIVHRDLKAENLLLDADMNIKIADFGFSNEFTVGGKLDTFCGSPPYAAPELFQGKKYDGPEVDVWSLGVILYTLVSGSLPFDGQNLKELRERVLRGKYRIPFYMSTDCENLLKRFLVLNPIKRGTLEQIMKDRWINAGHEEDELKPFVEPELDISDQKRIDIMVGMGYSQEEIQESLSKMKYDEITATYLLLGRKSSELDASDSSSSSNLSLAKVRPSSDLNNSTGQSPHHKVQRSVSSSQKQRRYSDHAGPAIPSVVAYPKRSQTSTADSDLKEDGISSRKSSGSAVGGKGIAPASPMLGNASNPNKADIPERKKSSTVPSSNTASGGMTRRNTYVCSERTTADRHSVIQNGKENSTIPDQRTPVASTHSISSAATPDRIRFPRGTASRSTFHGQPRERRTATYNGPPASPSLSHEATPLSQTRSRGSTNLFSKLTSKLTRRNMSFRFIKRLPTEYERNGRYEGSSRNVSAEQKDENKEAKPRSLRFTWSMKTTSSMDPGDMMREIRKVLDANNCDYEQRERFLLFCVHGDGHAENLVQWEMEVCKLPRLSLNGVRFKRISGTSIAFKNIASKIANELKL
Protocol: as §1

p38-alpha, sequence (Q16539 whole entry): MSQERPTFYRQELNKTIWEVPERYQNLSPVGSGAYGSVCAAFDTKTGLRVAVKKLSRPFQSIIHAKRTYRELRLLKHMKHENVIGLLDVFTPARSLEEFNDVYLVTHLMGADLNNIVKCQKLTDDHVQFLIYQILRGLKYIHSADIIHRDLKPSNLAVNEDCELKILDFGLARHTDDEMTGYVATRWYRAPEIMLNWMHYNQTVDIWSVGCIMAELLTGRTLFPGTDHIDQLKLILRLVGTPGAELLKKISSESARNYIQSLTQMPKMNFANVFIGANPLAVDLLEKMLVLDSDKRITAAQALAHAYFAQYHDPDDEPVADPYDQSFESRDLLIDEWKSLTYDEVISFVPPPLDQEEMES

For `C=C1CCCCCCCCCC(CO)C1=O` (centres unmarked) [EP009, 2-(Hydroxymethyl)-12-methylenecyclododecanone], the “Kinase Activity (% of Control)” value (p38-alpha) was 100 % of Control, the “decrease in JAK3 tyrosine phosphorylation levels” value (JAK3) was 70% and the “effect on CD30 surface expression” value (CD30) was “dose-dependent CD30 down-regulation”. For the same molecule, the “Kinase Activity (% of Control)” value (FLT3) was 99 % of Control and the “Kinase Activity (% of Control)” value (MARK3) was 100 % of Control.
